In ChEMBL document CHEMBL4359836, “Synthesis and Biological Assessment of Pyrrolobenzoxazine Scaffold as a Potent Antioxidant” (J Med Chem, 2019):
Calls of active or inactive are those of the source. No cut-off for these calls is given here.

Assays:
Mitochondria [1] = assay: Antioxidant activity in goat cardiac mitochondria assessed as reversal of CuCl2/ascorbic acid-induced reduction in ICDH level at 33 uM using isocitrate as substrate after 1 hr relative to control; type: functional, subcellular; conditions: Capra hircus, Heart, Mitochrondria
[2] = Binding affinity to Cu2+ assessed as binding constant K4 at 66 uM in presence of CuCl2 by isothermal titration calorimetry
Capra hircus [3] = species on record: Capra hircus; assay: Effect on PDH in goat cardiac mitochondria assessed as reversal of CuCl2/ascorbic acid induced reduction in Km at 66 uM using sodium pyruvate as substrate after 1 hr by Lineweaver-Burk double reciprocal plot analysis; conditions: Heart
[4] = Binding affinity to Cu2+ assessed as binding constant K1 at 66 uM in presence of CuCl2 by isothermal titration calorimetry
[5] = Induction of structural distortion in goat cardiac mitochondria at 66 uM after 1 hr by scanning electron microscopy; type: subcellular, Capra hircus, Heart, Mitochrondria
[6] = Antioxidant activity in pH 7.4 potassium phosphate buffer assessed as CuCl2/ascorbic acid induced hydroxyl radical scavenging activity by measuring deoxyribose degradation product formation after 20 mins by thiobarbituric acid based absorbance analysis; type: functional
Capra hircus [7] = species on record: Capra hircus; assay: Effect on alpha-ketoglutarate dehydrogenase in goat cardiac mitochondria assessed as reversal of CuCl2/ascorbic acid induced reduction in Vmax at 66 uM using alpha-ketoglutarate as substrate by Lineweaver-Burk double reciprocal plot analysis; conditions: Heart
Mitochondria [8] = assay: Antioxidant activity in goat cardiac mitochondria assessed as inhibition of CuCl2/ascorbic acid-induced manganese superoxide dismutase at 66 uM after 1 hr by pyrogallol autoxidation method relative to control; type: functional, subcellular; conditions: Capra hircus, Heart, Mitochrondria
Mitochondria [9] = assay: Antioxidant activity in goat cardiac mitochondria assessed as reversal of CuCl2/ascorbic acid-induced reduction in PDH level at 16.5 uM using sodium pyruvate as substrate after 1 hr spectrophotometric analysis (reference value: 66.25%); type: functional, subcellular; parameters: scale not given: the % may be the effect or the level left; conditions: Capra hircus, Heart, Mitochrondria
Mitochondria [10] = assay: Antioxidant activity in goat cardiac mitochondria assessed as reversal of CuCl2/ascorbic acid-induced reduction in PDH level at 33 uM using sodium pyruvate as substrate after 1 hr by spectrophotometric analysis relative to control; type: functional, subcellular; conditions: Capra hircus, Heart, Mitochrondria
Capra hircus [11] = species on record: Capra hircus; assay: Effect on ICDH in goat cardiac mitochondria assessed as reversal of CuCl2/ascorbic acid induced reduction in Km at 66 uM using isocitrate as substrate after 1 hr by Lineweaver-Burk double reciprocal plot analysis; conditions: Heart
Mitochondria [12] = assay: Antioxidant activity in goat cardiac mitochondria assessed as inhibition of CuCl2/ascorbic acid-induced manganese superoxide dismutase at 16.5 uM after 1 hr by pyrogallol autoxidation method relative to control; type: functional, subcellular; conditions: Capra hircus, Heart, Mitochrondria
[13] = Effect on alpha-KGDH levels in goat cardiac mitochondria at 8.25 to 66 uM using alpha-ketoglutarate as substrate after 1 hr; type: ADME, subcellular, Capra hircus, Heart, Mitochrondria
Mitochondria [14] = assay: Protective activity against CuCl2/ascorbic acid-induced apoptotic alteration in goat cardiac mitochondria assessed as reversal of CuCl2/ascorbic acid-induced reduction in cytochrome c oxidoreductase activity at 16.5 uM incubated for 1 hr and measured at 10 secs time interval for 90 secs by spectrophotometric analysis (reference value: 47.82%); type: functional, subcellular; parameters: scale not given: the % may be the effect or the level left; conditions: Capra hircus, Heart, Mitochrondria
[15] = Effect on cytochrome c oxidase activity in goat cardiac mitochondria at 8.25 to 66 uM incubated for 1 hr and measured at 10 secs time interval for 90 secs by spectrophotometric analysis; type: ADME, subcellular, Capra hircus, Heart, Mitochrondria
Mitochondria [16] = assay: Antioxidant activity in goat cardiac mitochondria assessed as reversal of CuCl2/ascorbic acid-induced reduction in GSH level at 8.25 uM after 1 hr by DTNB reagent based method (reference value: 75.89%); type: functional, subcellular; parameters: scale not given: the % may be the effect or the level left; conditions: Capra hircus, Heart, Mitochrondria
Mitochondria [17] = assay: Protective activity in goat cardiac mitochondria assessed as inhibition of CuCl2/ascorbic acid-induced perforated surface at 66 uM incubated for 1 hr by scanning electron microscopy; type: functional, subcellular; conditions: Capra hircus, Heart, Mitochrondria
[18] = Effect on PDH levels in goat cardiac mitochondria at 8.25 to 66 uM using sodium pyruvate as substrate after 1 hr by spectrophotometric analysis; type: ADME, subcellular, Capra hircus, Heart, Mitochrondria
Capra hircus [19] = species on record: Capra hircus; assay: Effect on ICDH in goat cardiac mitochondria assessed as reversal of CuCl2/ascorbic acid induced reduction in Vmax at 66 uM using isocitrate as substrate after 1 hr by Lineweaver-Burk double reciprocal plot analysis; conditions: Heart
Mitochondria [20] = assay: Antioxidant activity in goat cardiac mitochondria assessed as reversal of CuCl2/ascorbic acid-induced reduction in GSH level at 33 uM after 1 hr by DTNB reagent based method relative to control; type: functional, subcellular; conditions: Capra hircus, Heart, Mitochrondria
[21] = Binding affinity to Cu2+ assessed as binding constant K1 at 66 uM in presence of ascorbic acid/CuCl2 by isothermal titration calorimetry
Mitochondria [22] = assay: Antioxidant activity in goat cardiac mitochondria assessed as inhibition of CuCl2/ascorbic acid-induced manganese superoxide dismutase at 33 uM after 1 hr by pyrogallol autoxidation method relative to control; type: functional, subcellular; conditions: Capra hircus, Heart, Mitochrondria
[23] = Binding affinity to Cu2+ assessed as binding constant K3 at 66 uM in presence of CuCl2 by isothermal titration calorimetry
[24] = Binding affinity to Cu2+ assessed as binding constant K2 at 66 uM in presence of ascorbic acid/CuCl2 by isothermal titration calorimetry
Mitochondria [25] = assay: Protective activity against CuCl2/ascorbic acid-induced apoptotic alteration in goat cardiac mitochondria assessed as reversal of CuCl2/ascorbic acid-induced reduction in cytochrome c oxidase activity incubated for 1 hr and measured at 10 secs time interval for 90 secs by spectrophotometric analysis; type: functional, subcellular; conditions: Capra hircus; Heart; Mitochrondria
Mitochondria [26] = assay: Antioxidant activity in goat cardiac mitochondria assessed as reversal of CuCl2/ascorbic acid-induced reduction in ICDH level at 16.5 uM using isocitrate as substrate after 1 hr (reference value: 65.58%); type: functional, subcellular; parameters: scale not given: the % may be the effect or the level left; conditions: Capra hircus, Heart, Mitochrondria
Capra hircus [27] = species on record: Capra hircus; assay: Effect on succinate dehydrogenase in goat cardiac mitochondria assessed as reversal of CuCl2/ascorbic acid induced reduction in Vmax at 66 uM using succinate as substrate after 1 hr by Lineweaver-Burk double reciprocal plot analysis; conditions: Heart
[28] = Binding affinity to Cu2+ assessed as binding constant K2 at 66 uM in presence of CuCl2 by isothermal titration calorimetry
[29] = Binding affinity to ascorbate assessed as decrease in heat change at 66 uM in presence of ascorbic acid by isothermal titration calorimetry
[30] = Inhibition of succinate dehydrogenase in goat cardiac mitochondria assessed as effect on Vmax at 66 uM using succinate as substrate after 1 hr by Lineweaver-Burk double reciprocal plot analysis; parameters: species or system Capra hircus, Heart
[31] = Antioxidant activity in pH 7.4 potassium phosphate buffer assessed as CuCl2/ascorbic acid induced hydroxyl radical scavenging activity by measuring trolox equivalent antioxidant capacity by measuring IC50 Trolox/IC50 test compound ratio in presence of deoxyribose by thiobarbituric acid based absorbance analysis; type: functional
Capra hircus [32] = species on record: Capra hircus; assay: Effect on succinate dehydrogenase in goat cardiac mitochondria assessed as reversal of CuCl2/ascorbic acid induced reduction in Km at 66 uM using succinate as substrate after 1 hr by Lineweaver-Burk double reciprocal plot analysis; conditions: Heart
[33] = Effect on cytochrome c oxidoreductase activity in goat cardiac mitochondria at 8.25 to 66 uM incubated for 1 hr and measured at 10 secs time interval for 90 secs by spectrophotometric analysis; type: ADME, subcellular, Capra hircus, Heart, Mitochrondria

With `CCOC(=O)c1c(-c2ccc(O)c(OC)c2)cn2c1c(=O)oc1ccccc12` the fold change (FC) (Mitochondria [1]) was 2.4, the K [2] was 9 ×10⁴ /M and the Activity (Capra hircus [3]) was “Active”. The K [4] was 8.37 ×10⁴ /M, the Activity [5] was “Non-Toxic” and the Activity [6] was “Dose-dependent effect”. The IC50 [6] was 11 µM, the MEC [6] was 66 µM and the Activity (Capra hircus [7]) was “Active”. For the same molecule, the inhibition (Mitochondria [8]) was 60.9%, the Activity (Mitochondria [9]) was 94.5% and the fold change (FC) (Mitochondria [10]) was 2.94. For the same molecule, the Activity (Capra hircus [11]) was “Active”, the inhibition (Mitochondria [12]) was 34.1% and the Activity [13] was “Non-Toxic”. For the same molecule, the Activity (Mitochondria [14]) was 35.2%, the Activity [15] was “Non-Toxic” and the Activity (Mitochondria [16]) was 79.6%. For the same molecule, the Activity (Mitochondria [17]) was “Active”, the Activity [18] was “Non-Toxic” and the Activity (Capra hircus [19]) was “Active”. It also gave a fold change (FC) (Mitochondria [20]) of 4.66, a K [21] of 8.7 ×10⁴ /M and an inhibition (Mitochondria [22]) of 41.6%. For the same molecule, the K [23] was 1.04 ×10⁵ /M, the K [24] was 5.07 ×10³ /M and the Activity (Mitochondria [25]) was “Dose-dependent effect”. For the same molecule, the Activity (Mitochondria [26]) was 75.5%, the Activity (Capra hircus [27]) was “Active” and the K [28] was 9.55 ×10⁴ /M. The Activity [29] was “Active”, the “inhibition (INH)” value [30] was “Not Active” and the Ratio IC50 [31] was 0.9. The Activity (Capra hircus [32]) was “Active” and the Activity [33] was “Non-Toxic”.
